Entries after “also recorded” stand apart in the source; their conditions may differ.

For experiment [1], the system named is pain-related behavior induced by intrathecal administration of Compound 1. Put plainly: Inhibition of tentative responses for nociception (scratching, biting, licking) induced by intrathecal Compound 1. The class given is in vivo, mouse. The protocol: (§1) Scratching, biting, and licking behavior was regarded as an index of tentative responses for nociception, and the duration of such behavior was measured for 5 minutes from 5 minutes after the administration of Compound 1 in a transparent acrylic cage (20×13×10 cm) in a single-blind manner.
(§2) Mice (ddY; weighing 22 to 25 g when the experiment was started) were kept in a plastic cage at a constant temperature and humidity (22±1° C., 55±5%) under a 12-hour light-dark cycle. The mice had free access to food and water.
Compound 1 was dissolved in a physiological saline solution (Ohtsuka Pharmaceutical Co., Ltd.) and was intrathecally administered to the mice without anesthetization. The intrathecal dose of the drug solution per mouse was 4 μl, and a 30 gauge needle and a 25 μl Hamilton syringe were used according to the method disclosed by Hylden and Wilcox (J. L. K. Hylden & G. L. Wilcox, Eur. J. Pharmacol., 67: 313-316, 1980).
(−)-17cyclopropyl-3,1 4β-dihydroxy-4,5α-epoxy-6β-[N-methyl-trans-3-(3-furyl) acrylamide] morphinan hydrochloride (Compound 2) (H. Nagase et al. Chem. Pharm. Bull. 46, 366, 1998), of which the formula is shown below, [drawing 14] as a selective opioid κ-receptor agonist compound, was intrathecally administered to the mice simultaneously with Compound 1, and the effect thereof on neuropathic pain was evaluated based on tentative responses for nociception, such as scratching, biting, and licking behavior, as indexes. The duration of such behavior was measured for 5 minutes from 5 minutes after the administration of the simultaneous administration of Compound 2 and Compound 1 (15 μg/mouse) in a transparent acrylic cage (20×13×10 cm) in a single-blind manner. Additionally, Compound 2 was dissolved in a physiological saline solution for use.
In order to determine the effect of the drug on neuropathic pain, tentative responses for nociception were tested in the case in which a low dose of 1 or 3 nmol/mouse of Compound 2 was intrathecally administered simultaneously with Compound 1 in a manner similar to that of Example 2 and in the case in which Compound 2 was subcutaneously administered so that systemic exposure to the drug was evaluated. […] Since the effectiveness of Compound 2 has also been shown in systemic exposure, it has become clear that Compound 2 is effective even if the drug is not administered topically, that is, even if the drug is administered in various dosage forms which are pharmacologically acceptable.

In experiment [2] the test system is mice (ddY). Put plainly: Production of the neuropathic pain animal model: scratching, biting and licking behavior after intrathecal Compound 1. The class given is in vivo. Particulars: 7.5 μg/mouse or more, measured for 5 minutes from 5 minutes after administration. The protocol:
as §2
(+)-4a-(3-hydroxyphenyl)-2-methyl-1,2,3,4,4a, 5,12,12a-octahydrotrans-quinolino [2,3-g]isoquinoline (Compound 1) was dissolved in a physiological saline solution (Ohtsuka Pharmaceutical Co., Ltd.) and was intrathecally administered to the mice without anesthetization. The intrathecal dose of the drug solution per mouse was 4 μl, and a 30 gauge needle and a 25 μl Hamilton syringe were used according to the method disclosed by Hylden and Wilcox (J. L. K. Hylden & G. L. Wilcox, Eur. J. Pharmacol., 67: 313-316, 1980).
as §1

Experiment [3] deals with sciatic nerve ligation mouse model. Put plainly: Sciatic nerve ligation mouse model, allodynia/hyperalgesia by von Frey hairs. The class given is in vivo. The conditions noted are these: subcutaneous. The source says:
The action of Compound 2 in inhibiting neuropathic pain was investigated using another, widely known neuropathic pain model. That is, the action of Compound 2 in a sciatic nerve ligation mouse model was investigated using a method in which the method disclosed by A. B. Malmberg and A. I. Basbaum (Pain, 76, 215-222, 1998) et al. was slightly modified. In order to measure allodynia or hyperalgesia generally observed in neuropathic pain, two von Frey hairs (0.17 and 1.48 g) having different strengths were used. Four weeks following the surgery, the mice were placed in an acrylic cage (90×100×300 mm) and allowed to acclimate for a minimum of 30 minutes. The von Frey hairs were applied perpendicularly to the soles of the hind feet so as to cause slight bending for a duration of approximately 3 seconds. This was repeated 6 times at intervals of several seconds. The reaction of the mouse was given a score in the manner described below.
2: Immediate escape reaction and flinching of hind paw
The reactions of the surgically operated foot and the opposite foot as control were measured before the administration of the drug, and 30 minutes and 2 hours after the administration of the drug. The difference between the score of the surgically operated foot and the score of the control foot was evaluated as allodynia or hyperalgesia. […]

Experiment [4] has as its system pain associated with zosteriform skin lesions. Put plainly: Herpetic pain model, allodynia/hyperalgesia associated with zosteriform skin lesions. Particulars: orally administered; thirty minutes after the administration. The class given is in vivo. The source says: The therapeutic effect of Compound 2 on pain associated with zoster classified under neuropathic pain was investigated. The evaluation of the therapeutic effect was made using an animal model produced according to a method disclosed in Pain, 86, 95-101, 2000.

The mark [5] stands for this setting: simultaneous intrathecal administration with 15 μg/mouse of Compound 1.

Turning to `NCC(CC(=O)O)c1ccc(Cl)cc1` (stereo not shown) [Baclofen, reference compound], the “inhibition of tentative responses for nociception induced by Compound 1” value (“inhibition of tentative responses” for short) in experiment [1] (setting [5]) was “inhibited dose-dependently”.
Consider `CN1CC[C@@]2(c3cccc(O)c3)Cc3nc4ccccc4cc3C[C@@H]2C1` [Compound 1, (+)-4a-(3-hydroxyphenyl)-2-methyl-1,2,3,4,4a, 5,12,12a-octahydrotrans-quinolino [2,3-g]isoquinoline], for which the “tentative responses for nociception (duration of scratching, biting, and licking behavior)” value in experiment [2] was “increased significantly and dose-dependently”; in experiment [2] (listed as Compound I) it was “increases dose-dependently”.
In the case of `CN(C(=O)/C=C/c1ccoc1)[C@@H]1CC[C@@]2(O)[C@H]3Cc4ccc(O)c5c4[C@@]2(CCN3CC2CC2)[C@H]1O5.Cl` [Compound 2, (−)-17cyclopropyl-3,1 4β-dihydroxy-4,5α-epoxy-6β-[N-methyl-trans-3-(3-furyl)acrylamide] morphinan hydrochloride], the “inhibition of tentative responses” value is “significantly inhibited” in experiment [1] (10 nmol/mouse intrathecal, simultaneously with Compound 1 (15 μg/mouse), compared to physiological saline solution-treated group); “dose-dependent inhibitory action; also recorded: dose-dependently inhibited” in experiment [1] (low dose of 1 or 3 nmol/mouse intrathecal, simultaneously with Compound 1, hydrochloride); “dose-dependent inhibitory action; also recorded: dose-dependently inhibited” in experiment [1] (subcutaneously administered (systemic exposure), hydrochloride). The “allodynia or hyperalgesia (difference between score of surgically operated foot and control foot)” value is “the effect of the drug disappeared” in experiment [3] (after 2 hours); “inhibited allodynia or hyperalgesia” in experiment [3] (thirty minutes after the administration, von Frey hairs 0.17 and 1.48 g). Further, the “allodynia or hyperalgesia associated with zosteriform skin lesions” value in experiment [4] is given as “dose-dependently inhibited allodynia or hyperalgesia”.
`CN1CC[C@]23c4c5ccc(O)c4O[C@H]2[C@@H](O)C=C[C@H]3[C@H]1C5` [morphine, reference compound]: in experiment [1] (setting [5]), the “inhibition of tentative responses” value is given as “not inhibited at all”.

(Values after patent publication US20060094741A1, “Remedies for neuropathic pain and model animals of neuropathic pain” (Toray Industries, Inc., a corporation of Japan, priority 1999, published 2006).)
